Holding throughout (format): cell-based
One assay has as its system HEK293. The assay can be described thus: Selectivity ratio of EC50 for human GLP1R expressed in HEK293 cells to EC50 for human GLP2R expressed in HEK293.
The target in assay [1] is T1, Glucagon-like peptide 2 receptor (Homo sapiens, UniProt O95838).
T1 sequence (O95838 whole entry): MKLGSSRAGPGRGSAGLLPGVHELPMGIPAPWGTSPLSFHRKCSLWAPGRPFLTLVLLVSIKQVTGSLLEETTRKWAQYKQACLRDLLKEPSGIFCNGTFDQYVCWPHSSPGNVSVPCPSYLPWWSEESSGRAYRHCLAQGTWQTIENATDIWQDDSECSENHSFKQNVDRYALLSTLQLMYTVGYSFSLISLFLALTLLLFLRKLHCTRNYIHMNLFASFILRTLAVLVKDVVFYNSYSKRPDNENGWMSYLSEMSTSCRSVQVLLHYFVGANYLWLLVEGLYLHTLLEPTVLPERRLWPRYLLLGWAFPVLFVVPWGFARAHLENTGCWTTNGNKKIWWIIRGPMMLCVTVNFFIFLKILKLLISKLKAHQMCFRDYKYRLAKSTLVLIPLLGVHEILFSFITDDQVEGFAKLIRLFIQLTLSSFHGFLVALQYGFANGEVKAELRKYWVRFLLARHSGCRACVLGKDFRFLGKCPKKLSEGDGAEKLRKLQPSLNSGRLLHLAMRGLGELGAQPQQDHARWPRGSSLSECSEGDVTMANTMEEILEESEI
Put plainly: Agonist activity at human GLP2R expressed in HEK293 cells after 5 hrs by luciferase reporter gene assay.

Assay [2] addresses Glucagon-like peptide 1 receptor (Homo sapiens, UniProt P43220). Put plainly: Agonist activity at human GLP1R expressed in HEK293 cells after 5 hrs by luciferase reporter gene assay.

The text below walks through data of ChEMBL document CHEMBL3822442, “Synthesis and Pharmacological Characterization of Novel Glucagon-like Peptide-2 (GLP-2) Analogues with Low Systemic Clearance” (J Med Chem, 2016).

Bounds are passed on as bounds.

Glucagon-like peptide 1 receptor, sequence (P43220 whole entry): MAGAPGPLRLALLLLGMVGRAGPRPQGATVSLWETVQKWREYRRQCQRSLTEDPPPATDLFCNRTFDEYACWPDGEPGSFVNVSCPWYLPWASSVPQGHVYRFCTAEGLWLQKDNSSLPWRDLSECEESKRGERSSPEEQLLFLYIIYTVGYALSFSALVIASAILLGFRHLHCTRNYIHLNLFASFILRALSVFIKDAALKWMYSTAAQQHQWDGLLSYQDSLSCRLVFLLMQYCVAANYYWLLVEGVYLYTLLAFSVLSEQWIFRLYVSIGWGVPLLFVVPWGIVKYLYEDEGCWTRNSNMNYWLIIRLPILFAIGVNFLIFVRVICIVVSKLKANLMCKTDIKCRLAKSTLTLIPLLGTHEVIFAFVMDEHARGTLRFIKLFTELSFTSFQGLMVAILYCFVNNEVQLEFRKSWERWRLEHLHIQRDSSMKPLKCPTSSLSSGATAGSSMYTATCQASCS

In the case of `CCCCC(NC(=O)[C@H](CCC(=O)O)NC(=O)[C@H](CC(=O)O)NC(=O)[C@H](CO)NC(=O)[C@H](Cc1ccccc1)NC(=O)[C@H](CO)NC(=O)CNC(=O)[C@H](CC(=O)O)NC(=O)CNC(=O)[C@@H](N)Cc1cnc[nH]1)C(=O)N[C@H](Cc1ccccc1)C(=O)N[C@H](C(=O)N[C@H](C(=O)N[C@@H](CC(C)C)C(=O)N[C@@H](CC(=O)O)C(=O)N[C@@H](CC(C)C)C(=O)N[C@@H](CC(C)C)C(=O)N[C@@H](C)C(=O)N[C@@H](C)C(=O)N[C@@H](CCCNC(=N)N)C(=O)N[C@@H](CC(=O)O)C(=O)N[C@@H](Cc1ccccc1)C(=O)N[C@H](C(=O)N[C@@H](CC(N)=O)C(=O)N[C@@H](Cc1c[nH]c2ccccc12)C(=O)N[C@@H](CC(C)C)C(=O)N[C@H](C(=O)N[C@@H](CCC(N)=O)C(=O)N[C@H](C(=O)N[C@@H](CCCCN)C(N)=O)[C@@H](C)O)[C@@H](C)CC)[C@@H](C)CC)[C@@H](C)CC)[C@@H](C)O` (some centres not stated), the Ratio EC50 in the assay with HEK293 was greater than 12000.
Same read-out and setting: with `CCCCC(NC(=O)[C@H](CCC(=O)O)NC(=O)[C@H](CC(=O)O)NC(=O)[C@H](CO)NC(=O)[C@H](Cc1ccccc1)NC(=O)[C@H](CO)NC(=O)CNC(=O)[C@H](CC(=O)O)NC(=O)CNC(=O)[C@@H](N)Cc1cnc[nH]1)C(=O)N[C@H](Cc1ccccc1)C(=O)N[C@H](C(=O)N[C@H](C(=O)N[C@@H](CC(C)C)C(=O)N[C@@H](CC(=O)O)C(=O)N[C@@H](CC(C)C)C(=O)N[C@@H](CC(C)C)C(=O)N[C@@H](C)C(=O)N[C@@H](C)C(=O)N[C@@H](CCCNC(=N)N)C(=O)N[C@@H](CC(=O)O)C(=O)N[C@@H](Cc1ccccc1)C(=O)N[C@H](C(=O)N[C@@H](CC(N)=O)C(=O)N[C@@H](Cc1c[nH]c2ccccc12)C(=O)N[C@@H](CC(C)C)C(=O)N[C@H](C(=O)N[C@@H](CCC(N)=O)C(=O)N[C@H](C(=O)N[C@@H](CCCCN)C(=O)N[C@H](C(=O)N[C@H](C(=O)N[C@@H](CC(=O)O)C(=O)O)[C@@H](C)O)[C@@H](C)CC)[C@@H](C)O)[C@@H](C)CC)[C@@H](C)CC)[C@@H](C)CC)[C@@H](C)O` (some centres not stated) the figure was greater than 33000.
For `CCCCC(NC(=O)[C@H](CCC(=O)O)NC(=O)[C@H](CC(=O)O)NC(=O)[C@H](CO)NC(=O)[C@H](Cc1ccccc1)NC(=O)[C@H](CO)NC(=O)CNC(=O)[C@H](CC(=O)O)NC(=O)CNC(=O)[C@@H](N)Cc1cnc[nH]1)C(=O)N[C@H](Cc1cccs1)C(=O)N[C@H](C(=O)N[C@H](C(=O)N[C@@H](CC(C)C)C(=O)N[C@@H](CC(=O)O)C(=O)N[C@@H](Cc1ccccc1)C(=O)N[C@@H](CC(C)C)C(=O)N[C@@H](C)C(=O)N[C@@H](C)C(=O)N[C@@H](CCCNC(=N)N)C(=O)N[C@@H](CC(=O)O)C(=O)N[C@@H](Cc1ccccc1)C(=O)N[C@H](C(=O)N[C@@H](CC(N)=O)C(=O)N[C@@H](Cc1c[nH]c2ccccc12)C(=O)N[C@@H](CC(C)C)C(=O)N[C@H](C(=O)N[C@@H](CCC(N)=O)C(=O)N[C@H](C(=O)N[C@@H](CCCCN)C(N)=O)[C@@H](C)O)[C@@H](C)CC)[C@@H](C)CC)[C@@H](C)CC)[C@@H](C)O` (some centres not stated), in the assay on HEK293, the Ratio EC50 was greater than 12000.
Same read-out and setting: for `CCCCC(NC(=O)[C@H](CCC(=O)O)NC(=O)[C@H](CC(=O)O)NC(=O)[C@H](CO)NC(=O)[C@H](Cc1ccccc1)NC(=O)[C@H](CO)NC(=O)CNC(=O)[C@H](CC(=O)O)NC(=O)CNC(=O)[C@@H](N)Cc1cnc[nH]1)C(=O)N[C@H](Cc1ccccc1)C(=O)N[C@H](C(=O)N[C@H](C(=O)N[C@@H](CC(C)C)C(=O)N[C@@H](CC(=O)O)C(=O)N[C@@H](CC(C)C)C(=O)N[C@@H](CC(C)C)C(=O)N[C@@H](C)C(=O)N[C@@H](C)C(=O)N[C@@H](CCCNC(=N)N)C(=O)N[C@@H](CC(=O)O)C(=O)N[C@@H](Cc1ccccc1)C(=O)N[C@H](C(=O)N[C@@H](CC(N)=O)C(=O)N[C@@H](Cc1c[nH]c2ccccc12)C(=O)N[C@@H](CC(C)C)C(=O)N[C@H](C(=O)N[C@@H](CCC(N)=O)C(=O)N[C@H](C(=O)N[C@@H](CCCCN)C(=O)N[C@H](C(=O)N[C@H](C(=O)N[C@@H](CC(=O)O)C(=O)NCCOCCOCCOCCOCCC(N)=O)[C@@H](C)O)[C@@H](C)CC)[C@@H](C)O)[C@@H](C)CC)[C@@H](C)CC)[C@@H](C)CC)[C@@H](C)O` (some centres not stated) the value was greater than 33000.
With `CCCC[C@H](NC(=O)[C@H](CCC(=O)O)NC(=O)[C@H](CC(=O)O)NC(=O)[C@H](CO)NC(=O)[C@H](Cc1ccccc1)NC(=O)[C@H](CO)NC(=O)CNC(=O)[C@H](CC(=O)O)NC(=O)CNC(=O)[C@@H](N)Cc1cnc[nH]1)C(=O)N[C@H](Cc1cccs1)C(=O)N[C@H](C(=O)N[C@H](C(=O)N[C@@H](CC(C)C)C(=O)N[C@@H](CC(=O)O)C(=O)N[C@@H](Cc1ccccc1)C(=O)N[C@@H](CC(C)C)C(=O)N[C@@H](C)C(=O)N[C@@H](C)C(=O)N[C@@H](CCCNC(=N)N)C(=O)N[C@@H](CC(=O)O)C(=O)N[C@@H](Cc1ccccc1)C(=O)N[C@H](C(=O)N[C@@H](CC(N)=O)C(=O)N[C@@H](Cc1c[nH]c2ccccc12)C(=O)N[C@@H](CC(C)C)C(=O)N[C@H](C(=O)N[C@@H](CCC(N)=O)C(=O)N[C@H](C(=O)N[C@@H](CCCCN)C(N)=O)[C@@H](C)O)[C@@H](C)CC)[C@@H](C)CC)[C@@H](C)CC)[C@@H](C)O`, the 50% effective concentration (EC50) in assay [1] was 0.08 nM; in assay [2], greater than 1000 nM.
On to `CCCCC(NC(=O)[C@H](CCC(=O)O)NC(=O)[C@H](CC(=O)O)NC(=O)[C@H](CO)NC(=O)[C@H](Cc1ccccc1)NC(=O)[C@H](CO)NC(=O)CNC(=O)[C@H](CC(=O)O)NC(=O)CNC(=O)[C@@H](N)Cc1cnc[nH]1)C(=O)N[C@H](Cc1ccccc1)C(=O)N[C@H](C(=O)N[C@H](C(=O)N[C@@H](CC(C)C)C(=O)N[C@@H](CC(=O)O)C(=O)N[C@@H](CC(C)C)C(=O)N[C@@H](CC(C)C)C(=O)N[C@@H](C)C(=O)N[C@@H](C)C(=O)N[C@@H](CCCNC(=N)N)C(=O)N[C@@H](CC(=O)O)C(=O)N[C@@H](Cc1ccccc1)C(=O)N[C@H](C(=O)N[C@@H](CC(N)=O)C(=O)N[C@@H](Cc1c[nH]c2ccccc12)C(=O)N[C@@H](CC(C)C)C(=O)N[C@H](C(=O)N[C@@H](CCC(N)=O)C(=O)N[C@H](C(=O)N[C@@H](CCCCN)C(=O)N[C@H](C(=O)N[C@H](C(=O)N[C@@H](CC(=O)O)C(=O)NCC)[C@@H](C)O)[C@@H](C)CC)[C@@H](C)O)[C@@H](C)CC)[C@@H](C)CC)[C@@H](C)CC)[C@@H](C)O` (some centres not stated), for which the Ratio EC50 with HEK293 was greater than 20000.
The same measure, in the same setting: with `CCCCC(NC(=O)[C@H](CCC(=O)O)NC(=O)[C@H](CC(=O)O)NC(=O)[C@H](CO)NC(=O)[C@H](Cc1ccccc1)NC(=O)[C@H](CO)NC(=O)CNC(=O)[C@H](CC(=O)O)NC(=O)CNC(=O)[C@@H](N)Cc1cnc[nH]1)C(=O)N[C@H](Cc1ccccc1)C(=O)N[C@H](C(=O)N[C@H](C(=O)N[C@@H](CC(C)C)C(=O)N[C@@H](CC(=O)O)C(=O)N[C@@H](CC(C)C)C(=O)N[C@@H](CC(C)C)C(=O)N[C@@H](C)C(=O)N[C@@H](C)C(=O)N[C@@H](CCCNC(=N)N)C(=O)N[C@@H](CC(=O)O)C(=O)N[C@@H](Cc1ccccc1)C(=O)N[C@H](C(=O)N[C@@H](CC(N)=O)C(=O)N[C@@H](Cc1c[nH]c2ccccc12)C(=O)N[C@@H](CC(C)C)C(=O)N[C@H](C(=O)N[C@@H](CCC(N)=O)C(=O)N[C@H](C(=O)N[C@@H](CCCCN)C(=O)N[C@H](C(=O)N[C@H](C(=O)N[C@@H](CC(=O)O)C(N)=O)[C@@H](C)O)[C@@H](C)CC)[C@@H](C)O)[C@@H](C)CC)[C@@H](C)CC)[C@@H](C)CC)[C@@H](C)O` (some centres not stated) the figure was greater than 33000.
`CCCC[C@H](NC(=O)[C@H](CCC(=O)O)NC(=O)[C@H](CC(=O)O)NC(=O)[C@H](CO)NC(=O)[C@H](Cc1ccccc1)NC(=O)[C@H](CO)NC(=O)CNC(=O)[C@H](CC(=O)O)NC(=O)CNC(=O)[C@@H](N)Cc1c[nH]cn1)C(=O)N[C@@H](CC(N)=O)C(=O)N[C@H](C(=O)N[C@H](C(=O)N[C@@H](CC(C)C)C(=O)N[C@@H](CC(=O)O)C(=O)N[C@@H](Cc1ccc(N)cc1)C(=O)N[C@@H](CC(C)C)C(=O)N[C@@H](C)C(=O)N[C@@H](C)C(=O)N[C@@H](CCCNC(=N)N)C(=O)N[C@@H](CC(=O)O)C(=O)N[C@@H](Cc1ccccc1)C(=O)N[C@H](C(=O)N[C@@H](CC(N)=O)C(=O)N[C@@H](Cc1c[nH]c2ccccc12)C(=O)N[C@@H](CC(C)C)C(=O)N[C@H](C(=O)N[C@@H](CCC(N)=O)C(=O)N[C@H](C(=O)N[C@@H](CCCCN)C(N)=O)[C@@H](C)O)[C@@H](C)CC)[C@@H](C)CC)[C@@H](C)CC)[C@@H](C)O`: the EC50 was 0.13 nM in assay [1] and greater than 1000 nM in assay [2].
Consider `CCCC[C@H](NC(=O)[C@H](CCC(=O)O)NC(=O)[C@H](CC(=O)O)NC(=O)[C@H](CO)NC(=O)[C@H](Cc1ccccc1)NC(=O)[C@H](CO)NC(=O)CNC(=O)[C@H](CC(=O)O)NC(=O)CNC(=O)[C@@H](N)Cc1cnc[nH]1)C(=O)N[C@@H](CC(N)=O)C(=O)N[C@H](C(=O)N[C@H](C(=O)N[C@@H](CC(C)C)C(=O)N[C@@H](CC(=O)O)C(=O)N[C@@H](CC1CCCCC1)C(=O)N[C@@H](CC(C)C)C(=O)N[C@@H](C)C(=O)N[C@@H](C)C(=O)N[C@@H](CCCNC(=N)N)C(=O)N[C@@H](CC(=O)O)C(=O)N[C@@H](Cc1ccccc1)C(=O)N[C@H](C(=O)N[C@@H](CC(N)=O)C(=O)N[C@@H](Cc1c[nH]c2ccccc12)C(=O)N[C@@H](CC(C)C)C(=O)N[C@H](C(=O)N[C@@H](CCC(N)=O)C(=O)N[C@H](C(=O)N[C@@H](CCCCN)C(N)=O)[C@@H](C)O)[C@@H](C)CC)[C@@H](C)CC)[C@@H](C)CC)[C@@H](C)O`, for which the concentration for a half-maximal effect (EC50) was 0.1 nM in assay [1] and greater than 1000 nM in assay [2].
